The structures appear in SMILES notation. Some results are limits rather than exact numbers.

The subject of assay [1] is phospho-ERK in AsPC-1 (G12D) cells. Kind of assay: Inhibition of KRas-mediated phosphorylation of ERK (in-cell western). Format: cell-based. The note with it: 3 hours compound, phospho-ERK normalized to GAPDH. A digest of the protocol: (§1)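 Fixed-cell immunodetection of ERK phosphorylation following 3 h compound treatment (0.5% DMSO). IC50 derived by 4-parameter fit of GAPDH-normalized signal versus DMSO control.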

Assay [2] concerns phospho-ERK in NCI-H460 (Q61H) cells. The description is as above. Particulars: 3 hours compound, phospho-ERK normalized to GAPDH. It counts as cell-based. A digest of the protocol: as §1
For assay [3], the system named is phospho-ERK in NCI-H727 (G12V) cells. Described as above. It counts as cell-based. Particulars: 3 hours compound, phospho-ERK normalized to GAPDH. An outline of the steps: as §1
The target of another assay is KRas G12V (Homo sapiens, UniProt P01116, G12V).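 Also: KRas binding measured by TR-FRET displacement at room temperature, IC50 fitted from percent of control values.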
Sequence of KRas G12V (P01116 1-169 isoform P01116-2 G12V): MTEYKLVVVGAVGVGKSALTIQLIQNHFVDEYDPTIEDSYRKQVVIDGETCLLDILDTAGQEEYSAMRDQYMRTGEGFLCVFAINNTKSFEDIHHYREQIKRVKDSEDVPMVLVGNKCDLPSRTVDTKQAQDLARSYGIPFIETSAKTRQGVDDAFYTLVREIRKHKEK
The target in a further assay is KRas G12R (Homo sapiens, UniProt P01116, G12R).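 Also: TR-FRET displacement assay of compound binding to KRas, read after one hour at room temperature, potency from a four-parameter fit of percent-of-control values.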
Sequence of KRas G12R (P01116 1-169 isoform P01116-2 G12R): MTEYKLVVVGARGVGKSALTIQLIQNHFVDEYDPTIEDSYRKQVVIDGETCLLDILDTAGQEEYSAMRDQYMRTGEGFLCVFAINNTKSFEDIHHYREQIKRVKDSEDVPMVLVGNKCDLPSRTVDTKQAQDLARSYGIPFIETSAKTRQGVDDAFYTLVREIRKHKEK
In another assay the target is KRas G12D (Homo sapiens, UniProt P01116, G12D). Kind of assay: biochemical.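 Also: TR-FRET displacement binding assay on KRas, read after a one-hour incubation at room temperature, IC50 fitted from percent-of-control values.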
Sequence of KRas G12D (P01116 1-169 isoform P01116-2 G12D): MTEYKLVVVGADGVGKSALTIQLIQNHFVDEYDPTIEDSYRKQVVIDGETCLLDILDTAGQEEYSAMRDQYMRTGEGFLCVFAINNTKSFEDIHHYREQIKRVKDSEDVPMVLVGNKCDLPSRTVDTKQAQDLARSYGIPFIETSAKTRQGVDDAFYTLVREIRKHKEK
The next assay concerns pERK in MKN1 cells. Kind of assay: Inhibition of KRas phosphorylation of ERK (Cisbio HTRF pERK assay). Particulars: Homo sapiens, MKN-1, 3 h, read-out: Inhibition (HTRF IC50) of KRas-mediated Phosphorylation of ERK, MKN1.
The subject of another assay is pERK in PSN1 cells. The description is as above. The note with it: Homo sapiens, PSN1, 3 h, read-out: Inhibition (HTRF IC50) of KRas-mediated Phosphorylation of ERK, PSN1.

Take `CCc1c(F)ccc2cc(O)cc(-c3ncc4c(N5C[C@H](O)C[C@@H](O)C5)nc(OC[C@@]56CCCN5C[C@H](F)C6)nc4c3F)c12` [Example 296, (3R,5R)-1-(7-(8-ethyl-7-fluoro-3-hydroxynaphthalen-1-yl)-8-fluoro-2-(((2R,7aS)-2-fluorohexahydro-1H-pyrrolizin-7a-yl)methoxy)pyrido[4,3-d]pyrimidin-4-yl)piperidine-3,5-diol]: the IC50 was 2200 nM in assay [1]; 619 nM in assay [2]; 2080 nM in assay [3]; at most 2 nM against KRas G12V; at most 2 nM against KRas G12R; 4 nM against KRas G12D. For the same molecule, the values for the IC50 in the assay with pERK in MKN1 cells and in the assay on pERK in PSN1 cells were 53 nM and at least 10 µM, respectively.

A word on the IC50: it is the concentration needed to halve the response being measured.

(Values after patent publication US12398154B2, “Azaquinazoline pan-KRas inhibitors” (Mirati Therapeutics, Inc., priority 2020, dated 2025).)
